{"source": "patent US4398023A", "about": "“β-1,3-Glucanpolyol, process for preparation thereof, and utilization thereof” (Meito Sangyo Kabushiki Kaisha, priority 1979, dated 1983)", "key": {"[1]": {"experiment": "Intrinsic viscosity [.eta.]", "format": "physicochemical", "settings": "25° C., aqueous solution; concentration in g/100 ml", "experimental": "The intrinsic viscosity, as used in the present invention, is [.eta.] defined by the following equation. [formula] wherein .eta.sp =(.eta.-.eta.o)/.eta.o =/.eta.o -1 in which .eta. is the viscosity (at 25° C. in aqueous solution) of the solution and .eta.o is the viscosity of the solvent; and C is the concentration in g/100 ml."}, "CCM-adenocarcinoma": {"test_system": "CCM-adenocarcinoma", "experiment": "Antitumor activity test using CCM-adenocarcinoma in ICR-JCL mice", "format": "in vivo", "settings": "intraperitoneal, once a day for 10 days, fifth week", "experimental": "(§1) The ascites cells of Sarcoma 180 were inoculated peritoneally in ICR-JCL mice having a body weight of about 23 g. […] Starting 24 hours after the transplantation, the glucanpolyol of this invention was intraperitoneally administered once a day for 10 days. In the fifth week, the tumor was enucleated and its weight was compared with that in non-treated groups. The tumor inhibition ratio was calculated, and the number of tumors which completely regressed was observed.\n(§2) The tumor inhibition ratio was calculated in accordance with the following equation. [formula] wherein C is the average weight of tumor in non-treated groups (10 mice per group),\n(§3) T is the average weight of tumor in treated groups (10 mice per group).\n(8) An antitumor activity test using CCM-adenocarcinoma in ICR-JCL mice\nSix million CCM-adenocarcinoma cells were transplanted into the subcutaneous portion of the right inguinal part of ICR-JCL mice having a body weight of about 23 g, and then the same operation as in (1) above was performed."}, "Sarcoma 180 [2]": {"test_system": "Sarcoma 180", "experiment": "Antitumor activity test using Sarcoma 180 in Balb/c mice", "format": "in vivo", "settings": "intraperitoneal, once a day for 10 days, fifth week", "experimental": "as §1, §2, §3\n(5) An antitumor activity test using Sarcoma 180 in Balb/c mice\nSix million Sarcoma 180 cells were transplanted into the subcutaneous portion of the right inguinal part of the Balb/c mice having a body weight of about 23 g, and then, the same operation as in (1 ) above was performed."}, "ICR-JCL mice": {"test_system": "ICR-JCL mice", "experiment": "Toxicity (LD50) on ICR-JCL mice", "format": "in vivo", "from_the_text": "The toxicity of the β-1,3-glucanpolyol of this invention is very low, and the LD50 values of the products obtained in Examples 1, 4 and 5, for example, on ICR-JCL mice are as shown in Table 10."}, "Sarcoma 180 [3]": {"test_system": "Sarcoma 180", "experiment": "Antitumor activity test using Sarcoma 180 in C3H/He mice", "format": "in vivo", "settings": "intraperitoneal, once a day for 10 days, fifth week", "experimental": "(§4) Starting 24 hours after the transplantation, the glucanpolyol of this invention was intraperitoneally administered once a day for 10 days. In the fifth week, the tumor was enucleated and its weight was compared with that in non-treated groups. The tumor inhibition ratio was calculated, and the number of tumors which completely regressed was observed.\nas §2, §3\n(4) An antitumor activity test using Sarcoma 180 in C3H/He mice"}, "Meth-A": {"test_system": "Meth-A", "experiment": "Antitumor activity test using Meth-A in Balb/c mice", "format": "in vivo", "settings": "intraperitoneal, once a day for 10 days, fifth week", "experimental": "as §4, §2, §3\n(3) An antitumor activity test using Meth-A in Balb/c mice"}, "[4]": {"test_system": "NTF-reticulum cell sarcoma", "experiment": "Antitumor activity test using NTF-reticulum cell sarcoma in ICR-JCL mice", "format": "in vivo", "settings": "intraperitoneal, once a day for 10 days, fifth week", "experimental": "as §1, §2, §3\n(9) An antitumor activity test using NTF-reticulum cell sarcoma in ICR-JCL mice\nSix million NFT-reticulum cell sarcoma cells were transplanted into the subcutaneous portion of the right inguinal part of ICR-JCL mice having a body weight of about 23 g, and then, the same operation as in (1) above was performed."}, "Sarcoma 180 [5]": {"test_system": "Sarcoma 180", "experiment": "Antitumor activity test using Sarcoma 180 in ddY mice", "format": "in vivo", "settings": "intraperitoneal, once a day for 10 days, fifth week", "experimental": "as §1, §2, §3\n(7) An antitumor activity test using Sarcoma 180 in ddY mice\nSix million Sarcoma 180 cells were transplanted into the subcutaneous portion of the right inguinal part of ddY mice having a body weight of about 23 g, and then, the same operation as in (1) above was performed."}, "Sarcoma 180 [6]": {"test_system": "Sarcoma 180", "experiment": "Antitumor activity test using Sarcoma 180 in ICR-JCL mice", "format": "in vivo", "settings": "intraperitoneal, once a day for 10 days, fifth week", "experimental": "(1) An antitumor activity test using Sarcoma 180 in ICR-JCL mice\nas §4, §2, §3"}, "Ehrlich Carcinoma": {"test_system": "Ehrlich Carcinoma", "experiment": "Antitumor activity test using Ehrlich Carcinoma in ICR-JCL mice", "format": "in vivo", "settings": "intraperitoneal, once a day for 10 days, fifth week", "experimental": "as §4, §2, §3\n(2) An antitumor activity test using Ehrlich Carcinoma in ICR-JCL mice"}, "Sarcoma 180 [7]": {"test_system": "Sarcoma 180", "experiment": "Antitumor activity test using Sarcoma 180 in C57 BL/6 mice", "format": "in vivo", "settings": "intraperitoneal, once a day for 10 days, fifth week", "experimental": "as §1, §2, §3\n(6) An antitumor activity test using Sarcoma 180 in C57 BL/6 mice\nSix million Sarcoma 180 cells were transplanted into the subcutaneous portion of the right inguinal part of the C57 BL/6 mice having a body weight of about 20 g, and then the same operation as in (1) above was performed."}}}
{"substance": "β-1,3-glucanpolyol [Example 4]", "values": [{"measurement": "Intrinsic viscosity [.eta.]", "setting": "[1]", "value": 3.27, "unit": "dL/g"}, {"measurement": "Average weight of tumor", "setting": "CCM-adenocarcinoma; 1 mg/kg/day", "value": 0, "unit": "g"}, {"measurement": "Complete regression", "setting": "CCM-adenocarcinoma; 1 mg/kg/day", "value": "10/10"}, {"measurement": "Tumor inhibition ratio", "setting": "CCM-adenocarcinoma; 1 mg/kg/day", "value": 100, "unit": "%"}, {"measurement": "Average weight of tumor", "setting": "CCM-adenocarcinoma; 5 mg/kg/day", "value": 0.23, "unit": "g"}, {"measurement": "Complete regression", "setting": "CCM-adenocarcinoma; 5 mg/kg/day", "value": "8/10"}, {"measurement": "Tumor inhibition ratio", "setting": "CCM-adenocarcinoma; 5 mg/kg/day", "value": 98.1, "unit": "%"}, {"measurement": "Average weight of tumor", "setting": "Sarcoma 180 [2]; 1 mg/kg/day", "value": 0, "unit": "g"}, {"measurement": "Complete regression", "setting": "Sarcoma 180 [2]; 1 mg/kg/day", "value": "10/10"}, {"measurement": "Tumor inhibition ratio", "setting": "Sarcoma 180 [2]; 1 mg/kg/day", "value": 100, "unit": "%"}, {"measurement": "Average weight of tumor", "setting": "Sarcoma 180 [2]; 5 mg/kg/day", "value": 0, "unit": "g"}, {"measurement": "Complete regression", "setting": "Sarcoma 180 [2]; 5 mg/kg/day", "value": "10/10"}, {"measurement": "Tumor inhibition ratio", "setting": "Sarcoma 180 [2]; 5 mg/kg/day", "value": 100, "unit": "%"}, {"measurement": "Toxicity after ultrasonic treatment", "setting": "ICR-JCL mice; effect of ultrasonic treatment", "value": "lower toxicity"}, {"measurement": "LD50 Intraperitoneal administration", "setting": "ICR-JCL mice; intraperitoneal, ICR-JCL mice", "value": "above 5 g/kg"}, {"measurement": "LD50 Intravenous administration", "setting": "ICR-JCL mice; intravenous, ICR-JCL mice", "value": 1500, "unit": "mg/kg"}, {"measurement": "LD50 Oral administration", "setting": "ICR-JCL mice; oral, ICR-JCL mice", "value": "above 20 g/kg"}, {"measurement": "Average weight of tumor", "setting": "Sarcoma 180 [3]; 1 mg/kg/day", "value": 5.62, "unit": "g"}, {"measurement": "Complete regression", "setting": "Sarcoma 180 [3]; 1 mg/kg/day", "value": "0/10"}, {"measurement": "Tumor inhibition ratio", "setting": "Sarcoma 180 [3]; 1 mg/kg/day", "value": 56.5, "unit": "%"}, {"measurement": "Average weight of tumor", "setting": "Sarcoma 180 [3]; 5 mg/kg/day", "value": 4.93, "unit": "g"}, {"measurement": "Complete regression", "setting": "Sarcoma 180 [3]; 5 mg/kg/day", "value": "1/10"}, {"measurement": "Tumor inhibition ratio", "setting": "Sarcoma 180 [3]; 5 mg/kg/day", "value": 61.8, "unit": "%"}, {"measurement": "Average weight of tumor", "setting": "Meth-A; 5 mg/kg/day", "value": 7.99, "unit": "g"}, {"measurement": "Complete regression", "setting": "Meth-A; 5 mg/kg/day", "value": "0/10"}, {"measurement": "Tumor inhibition ratio", "setting": "Meth-A; 5 mg/kg/day", "value": 40.2, "unit": "%"}, {"measurement": "Average weight of tumor", "setting": "Meth-A; 20 mg/kg/day", "value": 9.33, "unit": "g"}, {"measurement": "Complete regression", "setting": "Meth-A; 20 mg/kg/day", "value": "0/10"}, {"measurement": "Tumor inhibition ratio", "setting": "Meth-A; 20 mg/kg/day", "value": 30.2, "unit": "%"}, {"measurement": "Average weight of tumor", "setting": "[4]; 1 mg/kg/day", "value": 0.67, "unit": "g"}, {"measurement": "Complete regression", "setting": "[4]; 1 mg/kg/day", "value": "8/10"}, {"measurement": "Tumor inhibition ratio", "setting": "[4]; 1 mg/kg/day", "value": 88.3, "unit": "%"}, {"measurement": "Average weight of tumor", "setting": "[4]; 5 mg/kg/day", "value": 0.83, "unit": "g"}, {"measurement": "Complete regression", "setting": "[4]; 5 mg/kg/day", "value": "6/10"}, {"measurement": "Tumor inhibition ratio", "setting": "[4]; 5 mg/kg/day", "value": 85.6, "unit": "%"}, {"measurement": "Average weight of tumor", "setting": "Sarcoma 180 [5]; 1 mg/kg/day", "value": 0.25, "unit": "g"}, {"measurement": "Complete regression", "setting": "Sarcoma 180 [5]; 1 mg/kg/day", "value": "8/10"}, {"measurement": "Tumor inhibition ratio", "setting": "Sarcoma 180 [5]; 1 mg/kg/day", "value": 97.7, "unit": "%"}, {"measurement": "Average weight of tumor", "setting": "Sarcoma 180 [5]; 5 mg/kg/day", "value": 0.54, "unit": "g"}, {"measurement": "Complete regression", "setting": "Sarcoma 180 [5]; 5 mg/kg/day", "value": "8/10"}, {"measurement": "Tumor inhibition ratio", "setting": "Sarcoma 180 [5]; 5 mg/kg/day", "value": 95.2, "unit": "%"}, {"measurement": "Average weight of tumor", "setting": "Sarcoma 180 [6]; 1 mg/kg/day", "value": 0.92, "unit": "g"}, {"measurement": "Complete regression", "setting": "Sarcoma 180 [6]; 1 mg/kg/day", "value": "6/10"}, {"measurement": "Tumor inhibition ratio", "setting": "Sarcoma 180 [6]; 1 mg/kg/day", "value": 91.6, "unit": "%"}, {"measurement": "Average weight of tumor", "setting": "Sarcoma 180 [6]; 5 mg/kg/day", "value": 0.41, "unit": "g"}, {"measurement": "Complete regression", "setting": "Sarcoma 180 [6]; 5 mg/kg/day", "value": "8/10"}, {"measurement": "Tumor inhibition ratio", "setting": "Sarcoma 180 [6]; 5 mg/kg/day", "value": 96.3, "unit": "%"}, {"measurement": "Average weight of tumor", "setting": "Ehrlich Carcinoma; 1 mg/kg/day", "value": 1.48, "unit": "g"}, {"measurement": "Complete regression", "setting": "Ehrlich Carcinoma; 1 mg/kg/day", "value": "6/10"}, {"measurement": "Tumor inhibition ratio", "setting": "Ehrlich Carcinoma; 1 mg/kg/day", "value": 90.1, "unit": "%"}, {"measurement": "Average weight of tumor", "setting": "Ehrlich Carcinoma; 5 mg/kg/day", "value": 0.97, "unit": "g"}, {"measurement": "Complete regression", "setting": "Ehrlich Carcinoma; 5 mg/kg/day", "value": "6/10"}, {"measurement": "Tumor inhibition ratio", "setting": "Ehrlich Carcinoma; 5 mg/kg/day", "value": 93.5, "unit": "%"}, {"measurement": "Average weight of tumor", "setting": "Sarcoma 180 [7]; 1 mg/kg/day", "value": 0.13, "unit": "g"}, {"measurement": "Complete regression", "setting": "Sarcoma 180 [7]; 1 mg/kg/day", "value": "9/10"}, {"measurement": "Tumor inhibition ratio", "setting": "Sarcoma 180 [7]; 1 mg/kg/day", "value": 96.4, "unit": "%"}, {"measurement": "Average weight of tumor", "setting": "Sarcoma 180 [7]; 5 mg/kg/day", "value": 0.12, "unit": "g"}, {"measurement": "Complete regression", "setting": "Sarcoma 180 [7]; 5 mg/kg/day", "value": "9/10"}, {"measurement": "Tumor inhibition ratio", "setting": "Sarcoma 180 [7]; 5 mg/kg/day", "value": 96.6, "unit": "%"}]}
{"substance": "β-1,3-glucanpolyol [Example 7]", "values": [{"measurement": "Intrinsic viscosity [.eta.]", "setting": "[1]", "value": 8.55, "unit": "dL/g"}]}
